PMC10004634 (PLOS ONE, 2023)
Read-outs that look alike come from different tables or passages of the source.

What was measured:
Assay in all cases: biochemical
Set-up in all cases: KINOMEscan scanMAX competition binding, DNA-tagged kinases, qPCR read-out, percent control at 300 nM
[1] = target: KIT(V559D) (Homo sapiens, UniProt P10721, V559D)
[2] = target: T1, ABL1(F317I)-nonphosphorylated (Homo sapiens, UniProt P00519, F317I)
T1 construct: nonphosphorylated

[3] = target: T2, PRKX (Homo sapiens, UniProt P51817)
T2 sequence (P51817 1-358): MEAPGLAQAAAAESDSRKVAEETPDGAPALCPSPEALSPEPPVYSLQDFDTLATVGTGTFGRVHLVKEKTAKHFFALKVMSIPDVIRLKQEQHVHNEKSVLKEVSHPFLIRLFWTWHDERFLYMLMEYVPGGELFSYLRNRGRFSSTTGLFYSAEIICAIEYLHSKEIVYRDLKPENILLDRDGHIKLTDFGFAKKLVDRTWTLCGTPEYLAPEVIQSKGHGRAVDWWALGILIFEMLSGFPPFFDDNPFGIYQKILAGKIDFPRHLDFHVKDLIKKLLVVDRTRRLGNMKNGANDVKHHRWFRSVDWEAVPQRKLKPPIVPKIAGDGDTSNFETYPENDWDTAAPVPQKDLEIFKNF

[4] = target: FLT4 (Homo sapiens, UniProt P35916)
Chain of FLT4 (P35916 whole entry): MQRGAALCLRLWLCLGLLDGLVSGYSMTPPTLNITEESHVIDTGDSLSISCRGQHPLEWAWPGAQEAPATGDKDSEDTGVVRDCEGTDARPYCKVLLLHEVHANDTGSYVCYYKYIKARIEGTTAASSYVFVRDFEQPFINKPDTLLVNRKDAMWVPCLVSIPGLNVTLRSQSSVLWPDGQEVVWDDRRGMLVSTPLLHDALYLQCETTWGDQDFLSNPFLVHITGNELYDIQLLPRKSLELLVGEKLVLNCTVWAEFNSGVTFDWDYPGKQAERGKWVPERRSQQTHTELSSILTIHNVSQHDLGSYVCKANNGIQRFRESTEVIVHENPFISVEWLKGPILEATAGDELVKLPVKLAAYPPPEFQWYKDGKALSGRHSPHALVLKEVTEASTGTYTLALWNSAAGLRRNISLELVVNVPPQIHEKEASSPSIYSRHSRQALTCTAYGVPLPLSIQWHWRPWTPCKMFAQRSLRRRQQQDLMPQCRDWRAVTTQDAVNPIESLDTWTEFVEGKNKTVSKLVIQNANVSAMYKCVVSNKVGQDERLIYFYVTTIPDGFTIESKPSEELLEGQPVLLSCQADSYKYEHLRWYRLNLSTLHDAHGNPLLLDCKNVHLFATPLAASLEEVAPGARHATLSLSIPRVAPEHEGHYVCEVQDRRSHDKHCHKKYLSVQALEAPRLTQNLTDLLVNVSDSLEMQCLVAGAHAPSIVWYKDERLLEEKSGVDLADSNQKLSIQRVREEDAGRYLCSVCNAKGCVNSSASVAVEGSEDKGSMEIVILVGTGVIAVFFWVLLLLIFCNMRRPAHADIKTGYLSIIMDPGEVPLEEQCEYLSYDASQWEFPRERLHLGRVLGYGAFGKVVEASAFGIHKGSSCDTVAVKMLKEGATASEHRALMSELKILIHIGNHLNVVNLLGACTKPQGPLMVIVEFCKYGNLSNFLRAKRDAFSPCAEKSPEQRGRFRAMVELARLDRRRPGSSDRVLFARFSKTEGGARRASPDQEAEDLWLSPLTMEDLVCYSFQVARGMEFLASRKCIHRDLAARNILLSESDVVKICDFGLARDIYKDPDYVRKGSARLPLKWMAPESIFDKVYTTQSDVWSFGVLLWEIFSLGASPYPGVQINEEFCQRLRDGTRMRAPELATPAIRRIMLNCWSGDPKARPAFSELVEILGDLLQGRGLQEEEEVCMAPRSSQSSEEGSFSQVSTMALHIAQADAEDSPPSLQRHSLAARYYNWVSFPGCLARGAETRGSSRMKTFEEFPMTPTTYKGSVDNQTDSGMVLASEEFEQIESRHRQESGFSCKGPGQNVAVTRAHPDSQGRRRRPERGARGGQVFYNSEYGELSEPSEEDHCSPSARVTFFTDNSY

[5] = target: T3, PIP5K2C (Homo sapiens, UniProt Q8TBX8)
T3 construct: gene PIP4K2C
T3 sequence (Q8TBX8 1-421): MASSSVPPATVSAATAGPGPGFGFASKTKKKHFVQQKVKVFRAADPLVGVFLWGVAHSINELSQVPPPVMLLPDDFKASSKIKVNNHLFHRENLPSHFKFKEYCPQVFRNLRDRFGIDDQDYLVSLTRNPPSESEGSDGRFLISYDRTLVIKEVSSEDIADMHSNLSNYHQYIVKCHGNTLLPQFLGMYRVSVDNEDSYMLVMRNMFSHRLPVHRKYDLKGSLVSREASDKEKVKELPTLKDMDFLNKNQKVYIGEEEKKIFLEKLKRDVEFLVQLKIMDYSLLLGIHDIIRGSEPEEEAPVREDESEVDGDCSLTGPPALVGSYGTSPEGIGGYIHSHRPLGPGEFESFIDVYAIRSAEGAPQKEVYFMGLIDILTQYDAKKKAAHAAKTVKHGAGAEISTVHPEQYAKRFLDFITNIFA

[6] = target: T4, MARK4 (Homo sapiens, UniProt Q96L34)
T4 sequence (Q96L34 1-752): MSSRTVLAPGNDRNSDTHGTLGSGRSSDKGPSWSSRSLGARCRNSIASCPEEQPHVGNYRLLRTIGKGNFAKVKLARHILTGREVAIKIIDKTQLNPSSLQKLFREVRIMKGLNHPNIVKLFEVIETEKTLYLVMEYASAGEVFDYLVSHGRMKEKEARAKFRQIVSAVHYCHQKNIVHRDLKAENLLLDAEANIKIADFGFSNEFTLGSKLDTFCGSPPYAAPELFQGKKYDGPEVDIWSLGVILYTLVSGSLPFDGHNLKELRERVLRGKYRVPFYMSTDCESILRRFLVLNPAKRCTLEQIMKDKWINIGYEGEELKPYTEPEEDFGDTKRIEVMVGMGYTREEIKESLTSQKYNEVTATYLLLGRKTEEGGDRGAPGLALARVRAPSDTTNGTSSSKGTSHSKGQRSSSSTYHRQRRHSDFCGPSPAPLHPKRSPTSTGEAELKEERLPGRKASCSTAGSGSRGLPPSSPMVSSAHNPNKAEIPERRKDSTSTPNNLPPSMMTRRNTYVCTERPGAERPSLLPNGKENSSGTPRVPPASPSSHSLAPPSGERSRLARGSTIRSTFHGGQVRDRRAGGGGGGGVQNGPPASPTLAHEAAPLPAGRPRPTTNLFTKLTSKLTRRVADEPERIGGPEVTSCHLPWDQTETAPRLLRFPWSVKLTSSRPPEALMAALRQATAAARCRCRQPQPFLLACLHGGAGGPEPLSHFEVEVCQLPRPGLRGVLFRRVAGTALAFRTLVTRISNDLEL

[7] = target: T5, MAP4K2 (Homo sapiens, UniProt Q12851)
T5 sequence (Q12851 1-820): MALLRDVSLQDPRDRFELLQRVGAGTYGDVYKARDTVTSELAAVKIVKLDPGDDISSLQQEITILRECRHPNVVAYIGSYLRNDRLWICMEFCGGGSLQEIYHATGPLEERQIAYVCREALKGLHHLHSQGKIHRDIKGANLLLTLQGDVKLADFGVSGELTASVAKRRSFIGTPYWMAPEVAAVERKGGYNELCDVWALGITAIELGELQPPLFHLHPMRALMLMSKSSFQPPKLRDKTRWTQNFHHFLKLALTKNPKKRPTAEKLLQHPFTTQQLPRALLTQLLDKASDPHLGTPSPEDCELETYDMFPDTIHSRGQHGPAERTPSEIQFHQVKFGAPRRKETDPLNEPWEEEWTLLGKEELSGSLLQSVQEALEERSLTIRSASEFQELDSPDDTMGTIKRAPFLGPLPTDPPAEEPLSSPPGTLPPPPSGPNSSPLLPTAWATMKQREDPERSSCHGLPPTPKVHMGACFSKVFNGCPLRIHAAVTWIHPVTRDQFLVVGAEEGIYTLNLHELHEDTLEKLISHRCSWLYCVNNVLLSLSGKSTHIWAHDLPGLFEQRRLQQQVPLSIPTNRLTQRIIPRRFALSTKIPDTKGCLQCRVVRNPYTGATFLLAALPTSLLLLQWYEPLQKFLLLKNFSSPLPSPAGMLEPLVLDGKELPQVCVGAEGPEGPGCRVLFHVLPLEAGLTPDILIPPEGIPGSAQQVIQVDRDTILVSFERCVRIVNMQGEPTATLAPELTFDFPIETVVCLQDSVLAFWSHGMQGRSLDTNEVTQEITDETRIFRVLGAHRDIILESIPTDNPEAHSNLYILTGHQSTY

[8] = read-out: Percent control / Acalabrutinib
[9] = read-out: Percent control / Ibrutinib
[10] = read-out: Percent control / Tirabrutinib
[11] = read-out: Percent control / Zanubrutinib

Chain of KIT(V559D) (P10721 whole entry V559D): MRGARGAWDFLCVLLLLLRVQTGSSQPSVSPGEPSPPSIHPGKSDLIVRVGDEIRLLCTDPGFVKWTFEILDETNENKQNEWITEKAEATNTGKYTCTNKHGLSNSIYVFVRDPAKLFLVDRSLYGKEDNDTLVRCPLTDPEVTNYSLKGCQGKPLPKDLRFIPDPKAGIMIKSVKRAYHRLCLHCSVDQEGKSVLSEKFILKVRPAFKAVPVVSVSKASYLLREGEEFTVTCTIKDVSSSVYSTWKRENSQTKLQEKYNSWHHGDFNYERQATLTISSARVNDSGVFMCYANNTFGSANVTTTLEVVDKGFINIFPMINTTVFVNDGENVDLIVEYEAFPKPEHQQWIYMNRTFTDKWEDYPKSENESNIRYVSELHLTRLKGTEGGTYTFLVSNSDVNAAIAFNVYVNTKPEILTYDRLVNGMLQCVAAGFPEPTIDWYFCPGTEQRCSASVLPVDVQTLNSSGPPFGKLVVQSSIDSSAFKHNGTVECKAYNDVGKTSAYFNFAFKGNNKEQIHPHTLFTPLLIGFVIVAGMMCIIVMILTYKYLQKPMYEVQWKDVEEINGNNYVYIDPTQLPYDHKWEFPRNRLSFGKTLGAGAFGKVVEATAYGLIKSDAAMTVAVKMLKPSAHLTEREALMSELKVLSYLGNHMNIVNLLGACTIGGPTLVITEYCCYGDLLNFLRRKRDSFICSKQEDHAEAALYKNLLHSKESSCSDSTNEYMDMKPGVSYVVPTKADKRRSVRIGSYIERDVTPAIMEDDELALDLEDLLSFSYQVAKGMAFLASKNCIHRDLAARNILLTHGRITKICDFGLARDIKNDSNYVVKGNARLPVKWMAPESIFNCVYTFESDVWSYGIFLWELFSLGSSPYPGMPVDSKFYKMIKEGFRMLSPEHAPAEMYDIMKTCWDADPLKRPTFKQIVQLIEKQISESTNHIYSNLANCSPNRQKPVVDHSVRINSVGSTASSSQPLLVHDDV
T1 sequence (P00519 whole entry F317I): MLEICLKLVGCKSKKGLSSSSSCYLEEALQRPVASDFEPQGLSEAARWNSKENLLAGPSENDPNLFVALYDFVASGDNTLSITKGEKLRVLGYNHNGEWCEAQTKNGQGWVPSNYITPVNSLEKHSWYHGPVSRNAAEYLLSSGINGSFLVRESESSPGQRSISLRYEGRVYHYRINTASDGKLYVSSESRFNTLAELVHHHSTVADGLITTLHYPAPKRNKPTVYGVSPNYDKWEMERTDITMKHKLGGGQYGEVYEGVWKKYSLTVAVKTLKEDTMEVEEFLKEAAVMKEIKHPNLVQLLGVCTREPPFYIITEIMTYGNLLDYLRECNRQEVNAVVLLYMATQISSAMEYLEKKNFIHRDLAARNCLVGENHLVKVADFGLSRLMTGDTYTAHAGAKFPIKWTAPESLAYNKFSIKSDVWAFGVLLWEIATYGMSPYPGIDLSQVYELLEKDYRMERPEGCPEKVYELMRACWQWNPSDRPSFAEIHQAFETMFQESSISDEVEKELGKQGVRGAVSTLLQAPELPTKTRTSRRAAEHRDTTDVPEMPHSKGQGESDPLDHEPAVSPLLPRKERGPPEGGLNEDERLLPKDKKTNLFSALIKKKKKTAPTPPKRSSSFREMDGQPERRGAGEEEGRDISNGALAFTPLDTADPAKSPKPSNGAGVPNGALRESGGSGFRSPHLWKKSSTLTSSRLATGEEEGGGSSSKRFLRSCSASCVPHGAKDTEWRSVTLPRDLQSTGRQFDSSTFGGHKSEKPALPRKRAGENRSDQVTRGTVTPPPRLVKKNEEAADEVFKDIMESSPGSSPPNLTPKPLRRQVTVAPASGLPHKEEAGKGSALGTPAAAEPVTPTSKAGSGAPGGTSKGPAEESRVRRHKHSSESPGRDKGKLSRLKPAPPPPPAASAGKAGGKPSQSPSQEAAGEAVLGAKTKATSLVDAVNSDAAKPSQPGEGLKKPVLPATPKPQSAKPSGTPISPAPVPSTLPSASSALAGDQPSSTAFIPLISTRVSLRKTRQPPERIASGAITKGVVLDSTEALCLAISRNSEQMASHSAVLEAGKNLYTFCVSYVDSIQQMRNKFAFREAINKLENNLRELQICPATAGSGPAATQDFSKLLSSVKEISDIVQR

## CC#CC(=O)N1CCC[C@H]1c1nc(-c2ccc(C(=O)Nc3ccccn3)cc2)c2c(N)nccn12 [Acalabrutinib]
[1]; [8]
  remaining binding at 0.3 µM: 84%
[2]; [8]
  remaining binding at 0.3 µM: 81%
[3]; [8]
  remaining binding at 0.3 µM: 81%
[4]; [8]
  remaining binding at 0.3 µM: 96%
[5]; [8]
  remaining binding at 0.3 µM: 90%

## C=CC(=O)N1CCC[C@@H](n2nc(-c3ccc(Oc4ccccc4)cc3)c3c(N)ncnc32)C1 [Ibrutinib]
[1]; [9]
  remaining binding at 0.3 µM: 55%
[2]; [9]
  remaining binding at 0.3 µM: 42%
[3]; [9]
  remaining binding at 0.3 µM: 75%
[6]; [9]
  remaining binding at 0.3 µM: 96%
[4]; [9]
  remaining binding at 0.3 µM: 57%
[7]; [9]
  remaining binding at 0.3 µM: 68%
[5]; [9]
  remaining binding at 0.3 µM: 81%

## CC#CC(=O)N1CC[C@@H](n2c(=O)n(-c3ccc(Oc4ccccc4)cc3)c3c(N)ncnc32)C1 [Tirabrutinib]
[2]; [10]
  remaining binding at 0.3 µM: 77%
[3]; [10]
  remaining binding at 0.3 µM: 87%
[6]; [10]
  remaining binding at 0.3 µM: 94%
[4]; [10]
  remaining binding at 0.3 µM: 99%
[7]; [10]
  remaining binding at 0.3 µM: 80%

## C=CC(=O)N1CCC([C@@H]2CCNc3c(C(N)=O)c(-c4ccc(Oc5ccccc5)cc4)nn32)CC1 [Zanubrutinib]
[1]; [11]
  remaining binding at 0.3 µM: 87%
[3]; [11]
  remaining binding at 0.3 µM: 96%
[6]; [11]
  remaining binding at 0.3 µM: 83%
[4]; [11]
  remaining binding at 0.3 µM: 100%
[7]; [11]
  remaining binding at 0.3 µM: 43%
[5]; [11]
  remaining binding at 0.3 µM: 92%
